Measured values published in patent US20210395745A1, “RNAI AGENTS FOR HEPATITIS B VIRUS INFECTION” (Arrowhead Pharmaceuticals, Inc., priority 2019, published 2021).

Key:
Hepatitis B Virus (HBV) [1] = test: Serum HBsAg levels (ELISA) in pHBV model mice; type: in vivo, NOD-SCID mice; conditions: for Average HBsAg levels normalized to pre-treatment and PBS control: 4.0 mg/kg sc day 1, Day 8
From the text: Six to eight-week-old female NOD.CB17-Prkdscid/NcrCrl (NOD-SCID) mice were transiently transfected in vivo with MC-HBV1.3 by hydrodynamic tail vein injection (Yang P L et al. “Hydrodynamic injection of viral DNA: a mouse model of acute hepatitis B virus infection,” PNAS USA 2002 Vol. 99: p. 13825-13830), administered 30 to 45 days prior to administration of an HBV RNAi agent or control. MC-HBV1.3 is a plasmid-derived minicircle that contains the same terminally redundant human hepatitis B virus sequence HBV1.3 as in plasmid pHBV1.3 and in the HBV1.3.32 transgenic mice (GenBank accession #V01460) (Guidotti L G et al., “High-level hepatitis B virus replication in transgenic mice,” J Virol 1995 Vol. 69, p 6158-6169.). 5 or 10 μg MC-HBV1.3 in Ringer's Solution in a total volume of 10% of the animal's body weight was injected into mice via tail vein to create pHBV model of chronic HBV infection. The solution was injected through a 27-gauge needle in 5-7 seconds as previously described (Zhang G et al., “High levels of foreign gene expression in hepatocytes after tail vein injection of naked plasmid DNA.” Human Gene Therapy 1999 Vol. 10, p 1735-1737.). At pre-dose (either day 1 pre-dose, day −1, or day −2), Hepatitis B surface antigen (HBsAg) HBsAg expression levels in serum were measured by ELISA and the mice were grouped according to average HBsAg expression levels.
HBV expression levels were normalized to pre-administration expression levels and to control mice injected with phosphate buffered saline (“PBS”).
Mice were anesthetized with 2-3% isoflurane and blood samples were collected from the submandibular area into serum separation tubes (Sarstedt AG & Co., Nümbrecht, Germany). Blood was allowed to coagulate at ambient temperature for 20 min. The tubes were centrifuged at 8,000×g for 3 min to separate the serum and stored at 4° C.
Serum was collected and diluted 10 to 8000-fold in PBS containing 5% nonfat dry milk. […] HBsAg levels were determined with a GS HBsAg EIA 3.0 kit (Bio-Rad Laboratories, Inc., Redmond, Wash.) as described by the manufacturer. […]

Hepatitis B Virus (HBV) [2] = test: Serum HBsAg levels in X Region Knockout model mice; type: in vivo; conditions: Example 14, single SC, 2 mg/kg AD04872 alone or with 0.7 to 2 mg/kg AD05070, days 8-29
Method: Serum was collected and diluted 10 to 8000-fold in PBS containing 5% nonfat dry milk. Secondary HBsAg standards diluted in the nonfat milk solution were prepared from serum of ICR mice (Harlan Sprague Dawley) that had been transfected with 10 μg HBsAg-expressing plasmid pRc/CMV-HBs (Aldevron, Fargo, N. Dak.). HBsAg levels were determined with a GS HBsAg EIA 3.0 kit (Bio-Rad Laboratories, Inc., Redmond, Wash.) as described by the manufacturer. Recombinant HBsAg protein, ayw subtype, also diluted in nonfat milk in PBS, was used as a primary standard (Aldevron).
HBsAg expression for each animal was normalized to the control group of mice injected with PBS in order to account for the non-treatment related decline in expression of MC-HBV1.3. First, the HBsAg level for each animal at a time point was divided by the pre-treatment level of expression in that animal in order to determine the ratio of expression “normalized to pre-treatment”. Expression at a specific time point was then normalized to the control group by dividing the “normalized to pre-treatment” ratio for an individual animal by the average “normalized to pre-treatment” ratio of all mice in the normal PBS control group.

Hepatitis B Virus (HBV) [3] = test: Serum HBV DNA levels in X Region Knockout model mice; conditions: Example 14, single SC, 2 mg/kg AD04872 with 0.7 to 2 mg/kg AD05070, days 8-22

Substance: AD05070: HBV RNAi agent duplex: antisense AM06606-AS, sense AM06605-SS (antisense UACCAAUUUAUGCCUACAGCG; sense CGCUGUAGGCAUAAAUUGGUA; chemically modified, pattern not given here)
- Average HBsAg levels normalized to pre-treatment and PBS control (Hepatitis B Virus (HBV) [1]; Ex 8 Group 6A): 0.058 ± 0.035
- Average HBsAg levels normalized to pre-treatment and PBS control (Hepatitis B Virus (HBV) [1]; Ex 8 Group 6B): 0.117 ± 0.058
- HBsAg compared to PBS control (Hepatitis B Virus (HBV) [1]; Example 15, pHBV mice, single SC injection, doses per Table 38, days 8-50): provided significant knockdown of HBsAg compared to PBS control across each of the time points measured
- knockdown of HBsAg compared to PBS control (Hepatitis B Virus (HBV) [2]): did not diminish the activity of the 2 mg/kg HBV RNAi agent AD04872
- serum HBV DNA (Hepatitis B Virus (HBV) [3]): did not diminish the activity of the 2 mg/kg HBV RNAi agent AD04872
